# Source: patent publication US6525001B1, “Substituted pyrimidine and pyridine herbicides” (Mid-American Commercialization Corporation, priority 1997, dated 2003)
# Tests used:
# Assay type in all cases: in vivo
# [1] = system: bedstraw (Galium aparine); assay: Test B pre-/postemergence; set-up: key: 0 is no effect; 10 is complete control; details: for Bedstraw plant response rating: Preemergence
# Method in brief: (§1)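 Response scores run from 0, meaning no effect, to 10, meaning complete control, assigned by eye relative to controls twelve to sixteen days after spraying. Treatment was both preemergence on planted seed and postemergence on plants at the 1- to 4-leaf stage.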
# [2] = system: blackgrass (Alopecurus myosuroides); assay: Test B pre-/postemergence; set-up: key: 0 is no effect; 10 is complete control; details: for Blackgrass plant response rating: Preemergence
# Method in brief: as §1
# [3] = system: broadleaf signalgrass (Brachiaria decumbens); assay: Test B pre-/postemergence; set-up: key: 0 is no effect; 10 is complete control; details: for B. signalgrass plant response rating: Preemergence
# Method in brief: as §1
# [4] = system: cocklebur (Xanthium strumarium); assay: Test B pre-/postemergence; set-up: key: 0 is no effect; 10 is complete control; details: for Cocklebur plant response rating: Preemergence
# Method in brief: as §1
# [5] = system: corn (Zea mays); assay: Test B pre-/postemergence; set-up: key: 0 is no effect; 10 is complete control; details: for Corn plant response rating: Preemergence
# Method in brief: as §1
# [6] = system: crabgrass (Digitaria sanguinalis); assay: Test B pre-/postemergence; set-up: key: 0 is no effect; 10 is complete control; details: for Crabgrass plant response rating: Preemergence
# Method in brief: as §1
# [7] = system: giant foxtail (Setaria faberii); assay: Test B pre-/postemergence; set-up: key: 0 is no effect; 10 is complete control
# Method in brief: as §1
# [8] = system: momingglory (Ipomoea hederacea); assay: Test B pre-/postemergence; set-up: key: 0 is no effect; 10 is complete control
# Method in brief: as §1
# [9] = system: pigweed (Amaranthus retroflexus); assay: Test B pre-/postemergence; set-up: key: 0 is no effect; 10 is complete control
# Method in brief: as §1
# [10] = system: purple nutsedge (Cyperus rotundus); assay: Test B pre-/postemergence; set-up: key: 0 is no effect; 10 is complete control; details: Postemergence
# Method in brief: as §1
# [11] = system: rape (Brassica napus); assay: Test B pre-/postemergence; set-up: key: 0 is no effect; 10 is complete control
# Method in brief: as §1
# [12] = system: soybean (Glycine max); assay: Test B pre-/postemergence; set-up: key: 0 is no effect; 10 is complete control
# Method in brief: as §1
# [13] = system: sugar beet (Beta vulgaris); assay: Test B pre-/postemergence; set-up: key: 0 is no effect; 10 is complete control
# Method in brief: as §1
# [14] = system: velvetleaf (Abutilon theophrasti); assay: Test B pre-/postemergence; set-up: key: 0 is no effect; 10 is complete control
# Method in brief: as §1
# [15] = system: wheat (Triticum aestivum); assay: Test B pre-/postemergence; set-up: key: 0 is no effect; 10 is complete control
# Method in brief: as §1
# [16] = system: wild oat (Avena fatua); assay: Test B pre-/postemergence; set-up: key: 0 is no effect; 10 is complete control
# Method in brief: as §1
# [17] = system: bamyardgrass (Echinochloa crus-galli); assay: Test B flood test
# Method in brief: (§2)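 Each value is a visual injury score relative to controls, with 10 meaning complete control and 0 no effect. Evaluation took place twelve to sixteen days after the 2-leaf-stage plants were treated and kept in the greenhouse.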
# [18] = system: duck salad (Heteranthera limosa); assay: Test B flood test
# Method in brief: as §2
# [19] = system: rice (Oryza sativa); assay: Test B flood test
# Method in brief: as §2
# [20] = system: smallflower flatsedge (Cyperus difformis); assay: Test B flood test
# Method in brief: as §2
# [21] = Rate 250 g/ha, Postemergence (so in the source)
# [22] = Rate 62 g/ha, Postemergence (flood test)
# [23] = Rate 125 g/ha, Postemergence, flood test
# [24] = Rate 250 g/ha, Postemergence (flood test species)
# [25] = Rate 125 g/ha, Postemergence section (flood test species)
compound,measurement,setting,value
CCc1cnc(-c2ccc(C(F)(F)F)cc2)nc1Cc1cccc(OC(F)(F)F)c1 [Compound 41],"Plant response rating, Bedstraw","[1]; Rate 62 g/ha, Postemergence",9
same,Bedstraw plant response rating,[1]; Rate 62 g/ha,2
same,"Plant response rating, Bedstraw","[1]; Rate 125 g/ha, Postemergence",9
same,Bedstraw plant response rating,[1]; Rate 125 g/ha,2
same,"Plant response rating, Bedstraw","[1]; Rate 250 g/ha, Postemergence",10
same,"Plant response rating, Bedstraw",[1]; [21],8
same,"Plant response rating, Blackgrass","[2]; Rate 62 g/ha, Postemergence",5
same,Blackgrass plant response rating,[2]; Rate 62 g/ha,7
same,"Plant response rating, Blackgrass","[2]; Rate 125 g/ha, Postemergence",6
same,Blackgrass plant response rating,[2]; Rate 125 g/ha,9
same,"Plant response rating, Blackgrass","[2]; Rate 250 g/ha, Postemergence",8
same,"Plant response rating, Blackgrass",[2]; [21],10
same,"Plant response rating, B. signalgrass","[3]; Rate 62 g/ha, Postemergence",2
same,B. signalgrass plant response rating,[3]; Rate 62 g/ha,2
same,"Plant response rating, B. signalgrass","[3]; Rate 125 g/ha, Postemergence",3
same,B. signalgrass plant response rating,[3]; Rate 125 g/ha,6
same,"Plant response rating, B. signalgrass","[3]; Rate 250 g/ha, Postemergence",6
same,"Plant response rating, B. signalgrass","[3]; Rate 250 g/ha, Postemergence as printed in head r139 (second section for compounds 26-50)",7
same,"Plant response rating, Cocklebur","[4]; Rate 62 g/ha, Postemergence",7
same,Cocklebur plant response rating,[4]; Rate 62 g/ha,0
same,"Plant response rating, Cocklebur","[4]; Rate 125 g/ha, Postemergence",8
same,Cocklebur plant response rating,[4]; Rate 125 g/ha,0
same,"Plant response rating, Cocklebur","[4]; Rate 250 g/ha, Postemergence",9
same,"Plant response rating, Cocklebur",[4]; [21],0
same,"Plant response rating, Corn","[5]; Rate 62 g/ha, Postemergence",2
same,Corn plant response rating,[5]; Rate 62 g/ha,0
same,"Plant response rating, Corn","[5]; Rate 125 g/ha, Postemergence",2
same,Corn plant response rating,[5]; Rate 125 g/ha,1
same,"Plant response rating, Corn","[5]; Rate 250 g/ha, Postemergence",3
same,"Plant response rating, Corn",[5]; [21],1
same,"Plant response rating, Crabgrass","[6]; Rate 62 g/ha, Postemergence",7
same,Crabgrass plant response rating,[6]; Rate 62 g/ha,8
same,"Plant response rating, Crabgrass","[6]; Rate 125 g/ha, Postemergence",9
same,Crabgrass plant response rating,[6]; Rate 125 g/ha,9
same,"Plant response rating, Crabgrass","[6]; Rate 250 g/ha, Postemergence",10
same,"Plant response rating, Crabgrass",[6]; [21],9
same,"Plant response rating, Giant foxtail","[7]; Rate 62 g/ha, Postemergence",2
same,Giant foxtail plant response rating,"[7]; Rate 62 g/ha, Preemergence",6
same,Giant foxtail plant response rating,"[7]; Rate 125 g/ha, Postemergence",6
same,Giant foxtail plant response rating,"[7]; Rate 125 g/ha, Preemergence",9
same,"Plant response rating, Giant foxtail","[7]; Rate 250 g/ha, Postemergence",9
same,"Plant response rating, Giant foxtail",[7]; [21],10
same,"Plant response rating, Morningglory","[8]; Rate 62 g/ha, Postemergence",8
same,Morningglory plant response rating,"[8]; Rate 62 g/ha, Preemergence",1
same,Morningglory plant response rating,"[8]; Rate 125 g/ha, Postemergence",8
same,Morningglory plant response rating,"[8]; Rate 125 g/ha, Preemergence",1
same,"Plant response rating, Morningglory","[8]; Rate 250 g/ha, Postemergence",8
same,"Plant response rating, Morningglory",[8]; [21],2
same,"Plant response rating, Redroot pigweed","[9]; Rate 62 g/ha, Postemergence",9
same,Redroot pigweed plant response rating,"[9]; Rate 62 g/ha, Preemergence",4
same,Redroot pigweed plant response rating,"[9]; Rate 125 g/ha, Postemergence",10
same,Redroot pigweed plant response rating,"[9]; Rate 125 g/ha, Preemergence",10
same,"Plant response rating, Redroot pigweed","[9]; Rate 250 g/ha, Postemergence",10
same,"Plant response rating, Redroot pigweed",[9]; [21],10
same,"Plant response rating, Nutsedge",[10]; Rate 62 g/ha,0
same,Nutsedge plant response rating,[10]; Rate 125 g/ha,0
same,"Plant response rating, Nutsedge",[10]; Rate 250 g/ha,0
same,"Plant response rating, Rape","[11]; Rate 62 g/ha, Postemergence",10
same,Rape plant response rating,"[11]; Rate 62 g/ha, Preemergence",3
same,Rape plant response rating,"[11]; Rate 125 g/ha, Postemergence",10
same,Rape plant response rating,"[11]; Rate 125 g/ha, Preemergence",3
same,"Plant response rating, Rape","[11]; Rate 250 g/ha, Postemergence",10
same,"Plant response rating, Rape",[11]; [21],4
same,"Plant response rating, Soybean","[12]; Rate 62 g/ha, Postemergence",5
same,Soybean plant response rating,"[12]; Rate 62 g/ha, Preemergence",0
same,Soybean plant response rating,"[12]; Rate 125 g/ha, Postemergence",7
same,"Plant response rating, Soybean","[12]; Rate 125 g/ha, Preemergence",0
same,"Plant response rating, Soybean","[12]; Rate 250 g/ha, Postemergence",7
same,"Plant response rating, Soybean",[12]; [21],1
same,"Plant response rating, Sugarbeets","[13]; Rate 62 g/ha, Postemergence",10
same,Sugarbeets plant response rating,"[13]; Rate 62 g/ha, Preemergence",3
same,Sugarbeets plant response rating,"[13]; Rate 125 g/ha, Postemergence",10
same,"Plant response rating, Sugarbeets","[13]; Rate 125 g/ha, Preemergence",6
same,"Plant response rating, Sugarbeets","[13]; Rate 250 g/ha, Postemergence",10
same,"Plant response rating, Sugarbeets",[13]; [21],8
same,"Plant response rating, Velvetleaf","[14]; Rate 62 g/ha, Postemergence",8
same,Velvetleaf plant response rating,"[14]; Rate 62 g/ha, Preemergence",1
same,Velvetleaf plant response rating,"[14]; Rate 125 g/ha, Postemergence",8
same,"Plant response rating, Velvetleaf","[14]; Rate 125 g/ha, Preemergence",3
same,"Plant response rating, Velvetleaf","[14]; Rate 250 g/ha, Postemergence",8
same,"Plant response rating, Velvetleaf",[14]; [21],10
same,Wheat plant response rating,"[15]; Rate 62 g/ha, Postemergence",2
same,Wheat plant response rating,"[15]; Rate 62 g/ha, Preemergence",1
same,Wheat plant response rating,"[15]; Rate 125 g/ha, Postemergence",3
same,"Plant response rating, Wheat","[15]; Rate 125 g/ha, Preemergence",1
same,"Plant response rating, Wheat","[15]; Rate 250 g/ha, Postemergence",3
same,"Plant response rating, Wheat",[15]; [21],2
same,Wild oats plant response rating,"[16]; Rate 62 g/ha, Postemergence",4
same,Wild oats plant response rating,"[16]; Rate 62 g/ha, Preemergence",4
same,Wild oats plant response rating,"[16]; Rate 125 g/ha, Postemergence",5
same,"Plant response rating, Wild oats","[16]; Rate 125 g/ha, Preemergence",9
same,"Plant response rating, Wild oats","[16]; Rate 250 g/ha, Postemergence",7
same,"Plant response rating, Wild oats",[16]; [21],9
same,"Plant response rating, Barnyardgrass",[17]; [22],5
same,"Plant response rating, Barnyardgrass",[17]; [23],5
same,"Plant response rating, Barnyardgrass",[17]; [24],5
same,"Plant response rating, Ducksalad",[18]; [22],2
same,"Plant response rating, Ducksalad",[18]; [23],3
same,"Plant response rating, Ducksalad",[18]; [24],5
same,"Plant response rating, Rice",[19]; [22],5
same,Rice plant response rating,[19]; [25],5
same,"Plant response rating, Rice",[19]; [24],6
same,"Plant response rating, S. Flatsedge",[20]; [22],5
same,S. Flatsedge plant response rating,[20]; [25],7
same,"Plant response rating, S. Flatsedge",[20]; [24],9
